Converted amounts (≈) assume the structure as drawn. Where two headings read alike, the source gives them in different places.
What was measured:
C. krusei = assay: Susceptibility of clinical isolates (MIC, broth dilution); assay type: cell-based; details: Pichia kudriavzevii; C. krusei (n = 27); M27-A3, 24 hrs; read at 50% inhibition (potassium salt, Voriconazole), 100% (Amphotericin), MEC (Caspofungin); read-out: MIC90
Experimental: (§1) The efficacy of compound IV″ was investigated on 563 clinical isolates of 33 human fungal pathogens. […] For species with n≧10, the MIC90 (MIC, minimal inhibitory concentration) is given as ng/ml. For species with n≦10, the MIC range is given as ng/ml. 24 h and 48 h reads are indicated (Table 1).
(§2) The in vitro efficacy of antifungal compounds is determined in susceptibility assays, which are indicative for the spectrum and potency of a compound. Susceptibilities are reported as minimal inhibitory concentrations (MIC, as ng/ml or μg/ml) required to inhibit growth to a defined degree compared to the drug free control. The MIC90 defines the MIC required to inhibit growth for ≧90% of the strains of a population tested.
(§3) The MIC90 was calculated for the indicated species.

C. tropicalis = assay: as above; assay type: cell-based; details: Candida tropicalis; C. tropicalis (n = 35); M27-A3, 24 hrs; read at 50% inhibition (potassium salt, Voriconazole), 100% (Amphotericin), MEC (Caspofungin); read-out: MIC90
Experimental: as §1, §2, §3

C. lusitaniae = assay: as above; assay type: cell-based; details: Clavispora lusitaniae; C. lusitaniae (n = 24); M27-A3, 24 hrs; read at 50% inhibition (potassium salt, Voriconazole), 100% (Amphotericin), MEC (Caspofungin); read-out: MIC90
Experimental: as §1, §2, §3

C. glabrata = assay: as above; assay type: cell-based; details: Nakaseomyces glabratus; C. glabrata (n = 25); M27-A3, 24 hrs; read at 50% inhibition (potassium salt, Voriconazole), 100% (Amphotericin), MEC (Caspofungin); read-out: MIC90
Experimental: as §1, §2, §3

C. albicans [1] = assay: as above; assay type: cell-based; details: Candida albicans; C. albicans (n = 20); M27-A3, 24 hrs; read at 50% inhibition (potassium salt, Voriconazole), 100% (Amphotericin), MEC (Caspofungin); read-out: MIC90
Experimental: as §1, §2, §3

C. dubliniensis = assay: as above; assay type: cell-based; details: Candida dubliniensis; C. dubliniensis (n = 25); M27-A3, 24 hrs; read at 50% inhibition (potassium salt, Voriconazole), 100% (Amphotericin), MEC (Caspofungin); read-out: MIC90
Experimental: as §1, §2, §3

C. parapsilosis = assay: as above; assay type: cell-based; details: Lodderomyces parapsilosis; C. parapsilosis (n = 37); M27-A3, 24 hrs; read at 50% inhibition (potassium salt, Voriconazole), 100% (Amphotericin), MEC (Caspofungin); read-out: MIC90
Experimental: as §1, §2, §3

[2] = tested on: C. albicans, Fluconazole, Voriconazole, Itraconazole and/or Caspofungin resistant isolates; assay: Susceptibility of resistant clinical isolates (MIC, broth dilution); assay type: cell-based; details: Candida albicans; C. albicans resistant (n = 20): isolates resistant to Fluconazole, Itraconazole and Caspofungin; read-out: MIC90
[3] = tested on: C. glabrata, Fluconazole, Voriconazole, Itraconazole and/or Caspofungin resistant isolates; assay: as above; assay type: cell-based; details: Nakaseomyces glabratus; C. glabrata resistant (n = 21): isolates resistant to Fluconazole, Itraconazole, Voriconazole and Caspofungin; read-out: MIC90
Experimental: as §1, §3

Candida albicans = assay: In vitro fungicidal activity vs. Candida albicans; details: Candida albicans
H. capsulatum = assay: microbe, parasite or virus in culture; assay type: cell-based; details: Histoplasma capsulatum, 120 h
Coccidioides spp. = assay: microbe, parasite or virus in culture; assay type: cell-based; details: Coccidioides, 48 h
C. albicans [4] = assay: Fatty acid competition (antagonism) in 96-well plates; details: 48 h
A. flavus = assay: Susceptibility of clinical Aspergillus isolates (MIC); assay type: cell-based; details: Aspergillus flavus; A. flavus (n = 2); CLSI M38-A2; 50% growth inhibition; 24 h; read-out: MIC50
Experimental: as §1
(§4) Susceptibilities were determined according to the CLSI reference method M38-A2.

A. fumigatus = assay: as above; assay type: cell-based; details: Aspergillus fumigatus; A. fumigatus (n = 20); CLSI M38-A2; 50% growth inhibition; 24 h; read-out: MIC50
Experimental: as §1, §4

A. niger = assay: as above; assay type: cell-based; details: A. niger (n = 6), CLSI M38-A2, 50% growth inhibition, 24 h, read-out: MIC50
Experimental: as §1, §4

A. nidulans = assay: as above; assay type: cell-based; details: A. nidulans (n = 3), CLSI M38-A2, 50% growth inhibition, 24 h, read-out: MIC50
Experimental: as §1, §4

A. versicolor = assay: as above; assay type: cell-based; details: Aspergillus versicolor; A. versicolor (n = 3); CLSI M38-A2; 50% growth inhibition; 24 h; read-out: MIC50
Experimental: as §1, §4

A. terreus = assay: as above; assay type: cell-based; details: Aspergillus terreus; A. terreus (n = 5); CLSI M38-A2; 50% growth inhibition; 24 h; read-out: MIC50
Experimental: as §1, §4

B. dermatitidis = assay: Susceptibility of clinical dimorphic fungi (MIC); assay type: cell-based; details: Blastomyces dermatitidis; B. dermatitidis (n = 30); CLSI M38-A2; 50% growth reduction; MIC read at 96 h

## C[C@@H]1[C@H](O)[C@@H](C)/C=C/C=C/C=C/C=C/C=C/C=C/C=C/[C@H](O[C@@H]2O[C@H](C)[C@@H](O)[C@H](N)[C@@H]2O)C[C@@H]2O[C@](O)(C[C@@H](O)C[C@@H](O)[C@H](O)CC[C@@H](O)C[C@@H](O)CC(=O)O[C@H]1C)C[C@H](O)[C@H]2C(=O)O [Amphotericin B]
C. krusei
  MIC90: 4 µg/mL
C. tropicalis
  MIC90: 1 µg/mL
C. lusitaniae
  MIC90: 1 µg/mL
C. glabrata
  MIC90: 2 µg/mL
C. albicans [1]
  MIC90: 0.5 µg/mL
C. dubliniensis
  MIC90: 1 µg/mL
C. parapsilosis
  MIC90: 0.5 µg/mL
[2]
  MIC90: 0.5 µg/mL (≈ 0.541 µM)
[3]
  MIC90: 2 µg/mL (≈ 2.16 µM)
Candida albicans
  Fungicidal Concentration: 800 ng/mL
Candida albicans; 24 h, read-out: MIC90 24 h
  MIC90: 0.2 µg/mL (≈ 0.216 µM)
Candida albicans; 48 h, read-out: MIC90 48 h
  MIC90: 0.8 µg/mL (≈ 0.866 µM)
H. capsulatum
  MIC90: 0.125 µg/mL (≈ 0.135 µM)
Coccidioides spp.
  MIC90: 0.5 µg/mL (≈ 0.541 µM)
C. albicans [4]
  effect of oleic acid / stearic acid on susceptibility: oleic acid did not decrease the susceptibility
A. flavus
  MIC50: 2 µg/mL (≈ 2.16 µM)
A. fumigatus
  MIC50: 0.5 µg/mL (≈ 0.541 µM)
A. niger
  MIC50: 1 µg/mL (≈ 1.08 µM)
A. nidulans
  MIC50: 2 µg/mL (≈ 2.16 µM)
A. versicolor
  MIC50: 2 µg/mL (≈ 2.16 µM)
A. terreus
  MIC50: 2 µg/mL (≈ 2.16 µM)
B. dermatitidis
  MIC90: 0.25 µg/mL (≈ 0.271 µM)
